Reference: patent US10947227B2, “Tricyclic heterocyclic compounds as sting activators” (Incyte Corporation, priority 2018, dated 2021)

Tested on: IRF3 activation in THP-1 Dual Cells
Assay: IRF3 activation assay in THP-1 Dual Cells (QUANTI-Blue readout)
Format: cell-based
Settings: Homo sapiens, THP1-Dual, 24 h
Method: THP-1 Dual Cells (Invivogen) were maintained in RPMI1640 medium with addition of 10% FBS, 100 μg/ml zeocin, 10 μg/ml blasticidin. Cells were added in a 96-well flat bottom assay plate at 100,000 per well in 100 μL complete RPMI medium. Test compounds were prepared by serial dilution in complete RPMI medium and 100 μL test compounds were transferred to each corresponding well. The assay plate was incubated at 37° C., 5% CO2 for 24 hours. After the overnight incubation, 20 μL of the culture supernatants were collected, followed by addition of 180 μL of QUANTI-Blue (Invivogen) to assess IRF3 activity. The amount of IRF3 activation was assessed by reading the absorbance at 620-655 nm with a microplate reader 2 hours later. The culture supernatant from the untreated THP-1 cells was used as the negative control. To determine the NF-κB activation, another 20 μL of culture supernatant were transferred to a 96-well white plate, followed by addition of 50 μL of Quanti-Luc™ assay solution (Invivogen). The amount of NF-κB activation induced by the test compounds were determined by the luminescence above the untreated control. EC50 determination was performed by fitting the curve of percent control activity versus the log of the compound concentration using the GraphPad Prism 6.0 software.

SMILES | EC50 (Table 1, 24 hours incubation) [nM] | EC50 (Table 2, 24 hours incubation) [nM]
CCn1nc(C)cc1C(=O)Nc1nc2cc(C(N)=O)cc(C)c2n1C/C=C/Cn1c2ccc(C(N)=O)cc2c2cnc(-c3cc(C(F)(F)F)nn3CC)nc21 [Example 9, (E)-9-(4-(5-carbamoyl-2-(1-ethyl-3-methyl-1H-pyrazole-5-carboxamido)-7-methyl-1H-benzo[d]imidazol-1-yl)but-2-enyl)-2-(1-ethyl-3-(trifluoromethyl)-1H-pyrazol-5-yl)-9H-pyrimido[4,5-b]indole-6-carboxamide] | < 1000 | 200 to 500
CCn1nc(C)cc1C(=O)Nc1nc2cc(C(N)=O)cc(C)c2n1C/C=C/Cn1c2nc(-c3cc(C)nn3CC)ncc2c2cc(C(N)=O)cc(OC)c21 [Example 10, (E)-9-(4-(5-carbamoyl-2-(1-ethyl-3-methyl-1H-pyrazole-5-carboxamido)-7-methyl-1H-benzo[d]imidazol-1-yl)but-2-enyl)-2-(1-ethyl-3-methyl-1H-pyrazol-5-yl)-8-methoxy-9H-pyrimido[4,5-b]indole-6-carboxamide] | < 200 | < 50
CCn1nc(C)cc1C(=O)Nc1nc2cc(C(N)=O)cc(C)c2n1C/C=C/Cn1c2nc(-c3cc(C)nn3CC)ncc2c2cc(C(N)=O)cc(OCCCN3CCOCC3)c21 [Example 11, (E)-9-(4-(5-carbamoyl-2-(1-ethyl-3-methyl-1H-pyrazole-5-carboxamido)-7-methyl-1H-benzo[d]imidazol-1-yl)but-2-enyl)-2-(1-ethyl-3-methyl-1H-pyrazol-5-yl)-8-(3-morpholinopropoxy)-9H-pyrimido[4,5-b]indole-6-carboxamide] | < 200 | < 50
CCn1nc(C)cc1C(=O)Nc1nc2cc(C(N)=O)cc(C)c2n1C/C=C/Cn1c2nc(-c3cc(C)nn3CC)ncc2c2cc(C(N)=O)cc(OCCCOC)c21 [Example 12, (E)-9-(4-(5-carbamoyl-2-(1-ethyl-3-methyl-1H-pyrazole-5-carboxamido)-7-methyl-1H-benzo[d]imidazol-1-yl)but-2-enyl)-2-(1-ethyl-3-methyl-1H-pyrazol-5-yl)-8-(3-methoxypropoxy)-9H-pyrimido[4,5-b]indole-6-carboxamide] | < 200 | < 50
CCn1nc(C)cc1C(=O)Nc1nc2cc(C(N)=O)cc(OCCCOC(=O)c3cc(C)nn3CC)c2n1C/C=C/Cn1c2nc(-c3cc(C)nn3CC)ncc2c2cc(C(N)=O)cc(OC)c21 [Example 15, (E)-3-((5-carbamoyl-1-(4-(6-carbamoyl-2-(1-ethyl-3-methyl-1H-pyrazol-5-yl)-8-methoxy-9H-pyrimido[4,5-b]indol-9-yl)but-2-en-1-yl)-2-(1-ethyl-3-methyl-1H-pyrazole-5-carboxamido)-1H-benzo[d]imidazol-7-yl)oxy)propyl 1-ethyl-3-methyl-1H-pyrazole-5-carboxylate] | < 200 | < 50
CCn1nc(C)cc1C(=O)Nc1nc2cc(C(N)=O)cc(OCCCO)c2n1C/C=C/Cn1c2nc(-c3cc(C)nn3CC)ncc2c2cc(C(N)=O)cc(OC)c21 [Example 16, (E)-9-(4-(5-carbamoyl-2-(1-ethyl-3-methyl-1H-pyrazole-5-carboxamido)-7-(3-hydroxypropoxy)-1H-benzo[d]imidazol-1-yl)but-2-en-1-yl)-2-(1-ethyl-3-methyl-1H-pyrazol-5-yl)-8-methoxy-9H-pyrimido[4,5-b]indole-6-carboxamide] | < 200 | < 50
CCn1nc(C)cc1C(=O)Nc1nc2cc(C(N)=O)cc(OCCCO)c2n1C/C=C/Cn1c2nc(-c3cc(C)nn3CC)ncc2c2cc(C(N)=O)cc(OCCCN3CCOCC3)c21 [Example 20, (E)-9-(4-(5-carbamoyl-2-(1-ethyl-3-methyl-1H-pyrazole-5-carboxamido)-7-(3-hydroxypropoxy)-1H-benzo[d]imidazol-1-yl)but-2-en-1-yl)-2-(1-ethyl-3-methyl-1H-pyrazol-5-yl)-8-(3-morpholinopropoxy)-9H-pyrimido[4,5-b]indole-6-arboxamide] | < 200 | < 50
CCn1nc(C)cc1C(=O)Nc1nc2cc(C(N)=O)cc(OCCCOC(=O)c3cc(C)nn3CC)c2n1C/C=C/Cn1c2nc(-c3cc(C)nn3CC)ncc2c2cc(C(N)=O)cc(OCCCOC)c21 [Example 21, (E)-3-((5-carbamoyl-1-(4-(6-carbamoyl-2-(1-ethyl-3-methyl-1H-pyrazol-5-yl)-8-(3-methoxypropoxy)-9H-pyrimido[4,5-b]indol-9-yl)but-2-en-1-yl)-2-(1-ethyl-3-methyl-1H-pyrazole-5-carboxamido)-1H-benzo[d]imidazol-7-yl)oxy)propyl 1-ethyl-3-methyl-1H-pyrazole-5-carboxylate] | < 200 | < 50
CCn1nc(C)cc1C(=O)Nc1nc2cc(C(N)=O)cc(OCCCO)c2n1C/C=C/Cn1c2nc(-c3cc(C)nn3CC)ncc2c2cc(C(N)=O)cc(OCCCOC)c21 [Example 22, (E)-9-(4-(5-carbamoyl-2-(1-ethyl-3-methyl-1H-pyrazole-5-carboxamido)-7-(3-hydroxypropoxy)-1H-benzo[d]imidazol-1-yl)but-2-en-1-yl)-2-(1-ethyl-3-methyl-1H-pyrazol-5-yl)-8-(3-methoxypropoxy)-9H-pyrimido[4,5-b]indole-6-carboxamide] | < 200 | < 50
CCn1nc(C)cc1C(=O)Nc1nc2cc(C(N)=O)cc(C)c2n1C/C=C/Cn1c2ccc(C(N)=O)cc2c2cnc(-c3cc(C)nn3CC)c(F)c21 [Example 23, (E)-5-(4-(5-carbamoyl-2-(1-ethyl-3-methyl-1H-pyrazole-5-carboxamido)-7-methyl-1H-benzo[d]imidazol-1-yl)but-2-en-1-yl)-3-(1-ethyl-3-methyl-1H-pyrazol-5-yl)-4-fluoro-5H-pyrido[4,3-b]indole-8-carboxamide] | < 200 | 50 to 200
CCn1nc(C)cc1C(=O)Nc1nc2cc(C(N)=O)cc(C)c2n1C/C=C/Cn1c2ccc(C(N)=O)cc2c2cc(F)c(-c3cc(C)nn3CC)nc21 [Example 24, (E)-9-(4-(5-carbamoyl-2-(1-ethyl-3-methyl-1H-pyrazole-5-carboxamido)-7-methyl-1H-benzo[d]imidazol-1-yl)but-2-en-1-yl)-2-(1-ethyl-3-methyl-1H-pyrazol-5-yl)-3-fluoro-9H-pyrido[2,3-b]indole-6-carboxamide] | < 200 | < 50

The next lines start with the values.

EC50 (Table 1, 24 hours incubation) [nM] | EC50 (Table 2, 24 hours incubation) [nM] | SMILES
< 200 | < 50 | CCn1nc(C)cc1C(=O)Nc1nc2cc(C(N)=O)cc(C)c2n1C/C=C/Cn1c2nc(-c3cc(C)nn3CC)ncc2c2cc(C(N)=O)cc(OCCCO)c21 [Example 13, (E)-9-(4-(5-carbamoyl-2-(1-ethyl-3-methyl-1H-pyrazole-5-carboxamido)-7-methyl-1H-benzo[d]imidazol-1-yl)but-2-enyl)-2-(1-ethyl-3-methyl-1H-pyrazol-5-yl)-8-(3-hydroxypropoxy)-9H-pyrimido[4,5-b]indole-6-carboxamide]
< 200 | < 50 | CCn1nc(C)cc1C(=O)Nc1nc2cc(C(N)=O)cc(C)c2n1C/C=C/Cn1c2nc(-c3cc(C)nn3CC)ccc2c2cc(C(N)=O)cc(OC)c21 [Example 14, (E)-9-(4-(5-carbamoyl-2-(1-ethyl-3-methyl-1H-pyrazole-5-carboxamido)-7-methyl-1H-benzo[d]imidazol-1-yl)but-2-enyl)-2-(1-ethyl-3-methyl-1H-pyrazol-5-yl)-8-methoxy-9H-pyrido[2,3-b]indole-6-carboxamide]
< 200 | < 50 | CCn1nc(C)cc1C(=O)Nc1nc2cc(C(N)=O)cc(OCCCOC(=O)c3cc(C)nn3CC)c2n1C/C=C/Cn1c2ccc(C(N)=O)cc2c2cnc(-c3cc(C)nn3CC)nc21 [Example 17, (E)-3-((5-carbamoyl-1-(4-(6-carbamoyl-2-(1-ethyl-3-methyl-1H-pyrazol-5-yl)-9H-pyrimido[4,5-b]indol-9-yl)but-2-en-1-yl)-2-(1-ethyl-3-methyl-1H-pyrazole-5-carboxamido)-1H-benzo[d]imidazol-7-yl)oxy)propyl 1-ethyl-3-methyl-1H-pyrazole-5-carboxylate]
< 200 | < 50 | CCn1nc(C)cc1C(=O)Nc1nc2cc(C(N)=O)cc(OCCCO)c2n1C/C=C/Cn1c2ccc(C(N)=O)cc2c2cnc(-c3cc(C)nn3CC)nc21 [Example 18, (E)-9-(4-(5-carbamoyl-2-(1-ethyl-3-methyl-1H-pyrazole-5-carboxamido)-7-(3-hydroxypropoxy)-1H-benzo[d]imidazol-1-yl)but-2-en-1-yl)-2-(1-ethyl-3-methyl-1H-pyrazol-5-yl)-9H-pyrimido[4,5-b]indole-6-carboxamide]
< 200 | < 50 | CCn1nc(C)cc1C(=O)Nc1nc2cc(C(N)=O)cc(OCCCOC(=O)c3cc(C)nn3CC)c2n1C/C=C/Cn1c2nc(-c3cc(C)nn3CC)ncc2c2cc(C(N)=O)cc(OCCCN3CCOCC3)c21 [Example 19, (E)-3-((5-carbamoyl-1-(4-(6-carbamoyl-2-(1-ethyl-3-methyl-1H-pyrazol-5-yl)-8-(3-morpholinopropoxy)-9H-pyrimido[4,5-b]indol-9-yl)but-2-en-1-yl)-2-(1-ethyl-3-methyl-1H-pyrazole-5-carboxamido)-1H-benzo[d]imidazol-7-yl)oxy)propyl 1-ethyl-3-methyl-1H-pyrazole-5-carboxylate]
